Test results from ChEMBL document CHEMBL5550147, “Supramolecular prodrug of SN38 based on endogenous albumin and SN38 prodrug modified with semaglutide side chain to improve the tumor distribution” (Bioorg Med Chem, 2024).
Activity calls are given as the source filed them. The calls are words filed in the database; no cut-off is given here.

Legend:
[1] = Drug distribution in lung of nude mouse xenografted with human HT-29 cells at 17.9 mg/kg, iv measured for 1 to 48 hrs by HPLC analysis; assay type: ADME, organism-based; details: in vivo, time 1-48 hrs
[2] = Drug accumulation in human HT-29 cells xenografted in nude mouse assessed as fold increase at 28 mg/kg, iv measured for 6 hrs by HPLC analysis relative to Irinotecan; assay type: ADME, organism-based; details: in vivo
[3] = Drug accumulation in human HT-29 cells xenografted in nude mouse assessed as fold increase at 28 mg/kg, iv measured for 48 hrs by HPLC analysis relative to Irinotecan; assay type: ADME, organism-based; details: in vivo
[4] = Drug accumulation in human HT-29 cells xenografted in nude mouse assessed as fold increase at 28 mg/kg, iv measured for 1 hr by HPLC analysis relative to Irinotecan; assay type: ADME, organism-based; details: in vivo
[5] = Half life in BALB/c mouse at 28 mg/kg, iv measured for 1 to 72 hrs by HPLC analysis; assay type: ADME, organism-based; details: in vivo, time 1-72 hrs
[6] = Stability in mouse plasma assessed as half life by HPLC analysis; assay type: ADME, cell-free
[7] = Volume of distribution in BALB/c mouse at 28 mg/kg, iv measured for 1 to 72 hrs by HPLC analysis; assay type: ADME, organism-based; details: in vivo, time 1-72 hrs
[8] = Drug accumulation in lung of nude mouse xenografted with human HT-29 cells assessed as fold change in free SN38 at 28 mg/kg, iv measured for 50 hrs by HPLC analysis relative to Irinotecan; assay type: ADME, organism-based; details: in vivo
[9] = Cmax in BALB/c mouse at 28 mg/kg, iv measured for 1 to 72 hrs by HPLC analysis; assay type: ADME, organism-based; details: in vivo, time 1-72 hrs
[10] = Toxicity in nude mouse xenografted with human HT-29 cells assessed as body weight change at 28 mg/kg, iv measured for 35 days; assay type: organism-based; details: in vivo, 840 h, time 35 day
[11] = Drug accumulation in human HT-29 cells xenografted in nude mouse assessed as fold increase at 28 mg/kg, iv measured for 24 hrs by HPLC analysis relative to Irinotecan; assay type: ADME, organism-based; details: in vivo
[12] = Clearance in BALB/c mouse at 28 mg/kg, iv measured for 1 to 72 hrs by HPLC analysis; assay type: ADME, organism-based; details: in vivo, time 1-72 hrs
[13] = Prodrug conversion in mouse plasma assessed as drug release incubated for 24 hrs by HPLC analysis; assay type: ADME, cell-free
[14] = tested on: HT-29; assay: Cytotoxicity against human HT-29 cells incubated for 48 hrs by MTT assay; assay type: functional, cell-based
[15] = tested on: MIA PaCa-2; assay: Cytotoxicity against human MIA PaCa-2 cells incubated for 48 hrs by MTT assay; assay type: functional, cell-based
[16] = tested on: MG-63; assay: Cytotoxicity against human MG-63 cells incubated for 48 hrs by MTT assay; assay type: functional, cell-based
[17] = tested on: HepG2; assay: Cytotoxicity against human HepG2 cells incubated for 48 hrs by MTT assay; assay type: functional, cell-based
[18] = AUC (0 to infinity) in BALB/c mouse at 28 mg/kg, iv measured for 1 to 72 hrs by HPLC analysis; assay type: ADME, organism-based; details: in vivo, time 1-72 hrs
[19] = tested on: A549; assay: Cytotoxicity against human A549 cells incubated for 48 hrs by MTT assay; assay type: functional, cell-based
[20] = Stability of compound in PBS at pH 6.5 at 50 uM by HPLC analysis; assay type: physicochemical; details: buffer, pH 6.5, 50 µM
[21] = Stability of compound in PBS at pH 7.4 at 50 uM by HPLC analysis; assay type: physicochemical; details: buffer, pH 7.4, 50 µM
[22] = tested on: HT-29; assay: Anti-tumor activity against human HT-29 cells xenografted in nude mouse at 28 mg/kg, iv measured for 35 days relative to control; assay type: functional; details: HT-29, 840 h, time 35 day, read-out: TGI
[23] = Drug distribution in lung of nude mouse xenografted with human HT-29 cells at 15 mg/kg, iv measured for 1 to 48 hrs by HPLC analysis; assay type: ADME, organism-based; details: in vivo, time 1-48 hrs
[24] = tested on: HT-29; assay: Anti-tumor activity against human HT-29 cells xenografted in nude mouse at 15 mg/kg, iv measured for 35 days relative to control; assay type: functional; details: HT-29, 840 h, time 35 day, read-out: TGI

CCc1c2c(nc3ccc(O)cc13)-c1cc3c(c(=O)n1C2)COC(=O)[C@@]3(CC)OC(=O)CNC(=O)CCCCCCCCCCCCCCCCC(=O)O
Drug uptake [1]: Active | fold change (FC) [2]: 2.1 | fold change (FC) [3]: 7.8 | fold change (FC) [4]: 2.5 | half-life [5]: 262 min | half-life [6]: 840 min | Vd [7]: 0.191 L | fold change (FC) [8]: 0.3 | Cmax [9]: 3670 ng/mL | Activity [10]: Non-Toxic | fold change (FC) [11]: 1.6 | CL [12]: 0.031 L/h/kg | Drug metabolism [13]: Metabolite_Detected | Activity [14]: Active | Activity [15]: Active | Activity [16]: Active | Activity [17]: Active | AUC [18]: 23.13 mg·h/L | Activity [19]: Active | Stability [20]: Stable | Stability [21]: Stable | inhibition in vivo at 28 mg/kg [22]: 71%

CCc1c2c(nc3ccc(OC(=O)N4CCC(N5CCCCC5)CC4)cc13)-c1cc3c(c(=O)n1C2)COC(=O)[C@]3(O)CC [IRINOTECAN]
Drug uptake [23]: Active | inhibition in vivo at 15 mg/kg [24]: 62.3%
